The experiment concerns the target human PDE1B enzyme (Homo sapiens (Human), UniProt Q01064). Put plainly: IMAP TR-FRET PDE1B enzymatic assay. The experiment is classed as biochemical. Particulars: negative log of half-maximal molar inhibitory concentration, 200 nM FAM-cAMP, values given as bins; for IC50: read-out: PDE1b (pIC50) (converted). Put shortly:
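Full-length GST-tagged human PDE1B (250 pg/well) in IMAP BSA buffer with 10 U/ml calmodulin and 2.5 mM CaCl2; compound pre-incubated 5 min at room temperature, then 200 nM (final) FAM-cAMP for 30 min. IMAP binding reagent/Tb added, 1 h; TR-FRET 520/490 ratio read. IC50 from sigmoidal dose-response fit.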
(Time-resolved FRET reads energy transfer from a long-lived donor to a nearby acceptor.)

Regarding `Cc1oc2ncnc(NC3(C)CC3)c2c1C(=O)NCCOC(C)C` [Example 176, 6-Methyl-4-[(1-methylcyclopropyl)amino]-N-[2-(propan-2-yloxy)ethyl]furo[2,3-d]pyrimidine-5-carboxamide], the IC50 was 10 to 100 nM.
The same measure, in the same setting: the value for `Cc1oc2ncnc(NC3(C)CC3)c2c1C(=O)NCc1ccccc1` [Example 177, N-Benzyl-6-methyl-4-[(1-methylcyclopropyl)amino]furo[2,3-d]pyrimidine-5-carboxamide] was 10 to 100 nM; that for `Cc1ccccc1NC(=O)c1c(C)oc2ncnc(NC3(C)CC3)c12` [Example 178, 6-Methyl-4-[(1-methylcyclopropyl)amino]-N-(2-methylphenyl)furo[2,3-d]pyrimidine-5-carboxamide] was 10 to 100 nM.
Still for that read-out and setting: to `Cc1cccc(NC(=O)c2c(C)oc3ncnc(NC4(C)CC4)c23)c1` [Example 180, 6-Methyl-4-[(1-methylcyclopropyl)amino]-N-(3-methylphenyl)furo[2,3-d]pyrimidine-5-carboxamide] belongs 10 to 100 nM; to `Cc1ncccc1NC(=O)c1c(C)oc2ncnc(NC3(C)CC3)c12` [Example 181, 6-Methyl-4-[(1-methylcyclopropyl)amino]-N-(2-methylpyridin-3-yl)furo[2,3-d]pyrimidine-5-carboxamide], 10 to 100 nM; to `Cc1oc2ncnc(NC3(C)CC3)c2c1C(=O)NCc1ccc(N2CCOCC2)cc1` [Example 184, 6-Methyl-4-[(1-methylcyclopropyl)amino]-N-{[4-(morpholin-4-yl)phenyl]methyl}furo[2,3-d]pyrimidine-5-carboxamide], 10 to 100 nM.
Consider `COc1ccc(CNC(=O)c2c(C)oc3ncnc(NC4(C)CC4)c23)c(F)c1F` [Example 185, N-[(2,3-Difluoro-4-methoxyphenyl)methyl]-6-methyl-4-[(1-methylcyclopropyl)amino]furo[2,3-d]pyrimidine-5-carboxamide], for which the “PDE1b (pIC50)” value was more than 8.
Turning to `COc1ccc(N2CCN(C(=O)c3c(C)oc4ncnc(NC5(C)CC5)c34)CC2)cc1` [Example 186, 5-[4-(4-Methoxyphenyl)piperazine-1-carbonyl]-6-methyl-N-(1-methylcyclopropyl)furo[2,3-d]pyrimidin-4-amine], the IC50 was 10 to 100 nM.
Same read-out and setting: the value for `Cc1oc2ncnc(NC3(C)CC3)c2c1C(=O)NCCc1ccco1` [Example 188, N-[2-(Furan-2-yl)ethyl]-6-methyl-4-[(1-methylcyclopropyl)amino]furo[2,3-d]pyrimidine-5-carboxamide] was 10 to 100 nM; that for `Cc1oc2ncnc(NC3(C)CC3)c2c1C(=O)NCCn1ccnc1` [Example 189, N-[2-(1H-Imidazol-1-yl)ethyl]-6-methyl-4-[(1-methylcyclopropyl)amino]furo[2,3-d]pyrimidine-5-carboxamide] was 100 to 1000 nM; that for `Cc1oc2ncnc(NC3(C)CC3)c2c1C(=O)NCc1cccs1` [Example 190, 6-Methyl-4-[(1-methylcyclopropyl)amino]-N-(thiophen-2-ylmethyl)furo[2,3-d]pyrimidine-5-carboxamide] was 10 to 100 nM.
For `Cc1oc2ncnc(NC3(C)CC3)c2c1C(=O)NCc1ccsc1` [Example 191, 6-Methyl-4-[(1-methylcyclopropyl)amino]-N-(thiophen-3-ylmethyl)furo[2,3-d]pyrimidine-5-carboxamide], the IC50 is 10 to 100 nM.
As for `Cc1oc2ncnc(NC3(C)CC3)c2c1C(=O)NCC1CCCCC1` [Example 192, N-(Cyclohexylmethyl)-6-methyl-4-[(1-methylcyclopropyl)amino]furo[2,3-d]pyrimidine-5-carboxamide], the IC50 is 10 to 100 nM.
With `Cc1oc2ncnc(NC3(C)CC3)c2c1C(=O)NC1CCN(C)CC1` [Example 193, 6-Methyl-4-[(1-methylcyclopropyl)amino]-N-(1-methylpiperidin-4-yl)furo[2,3-d]pyrimidine-5-carboxamide], the “PDE1b (pIC50)” value is given as less than 6.
The same measure, in the same setting: to `Cc1oc2ncnc(NC3(C)CC3)c2c1C(=O)NC(C)c1ccccc1` (centres unmarked) [Example 194, 6-Methyl-4-[(1-methylcyclopropyl)amino]-N-(1-phenylethyl)furo[2,3-d]pyrimidine-5-carboxamide] belongs more than 8.
For `Cc1oc2ncnc(NC3(C)CC3)c2c1C(=O)NCCc1ccccc1` [Example 195, 6-Methyl-4-[(1-methylcyclopropyl)amino]-N-(2-phenylethyl)furo[2,3-d]pyrimidine-5-carboxamide], the IC50 is 10 to 100 nM.
For `Cc1ccc(CNC(=O)c2c(C)oc3ncnc(NC4(C)CC4)c23)cc1` [Example 196, 6-Methyl-4-[(1-methylcyclopropyl)amino]-N-[(4-methylphenyl)methyl]furo[2,3-d]pyrimidine-5-carboxamide], the “PDE1b (pIC50)” value was more than 8.
For `Cc1cccc(CNC(=O)c2c(C)oc3ncnc(NC4(C)CC4)c23)c1` [Example 198, 6-Methyl-4-[(1-methylcyclopropyl)amino]-N-[(3-methylphenyl)methyl]furo[2,3-d]pyrimidine-5-carboxamide], the IC50 is 10 to 100 nM.
Take `COc1cccc(CN(C)C(=O)c2c(C)oc3ncnc(NC4(C)CC4)c23)c1` [Example 203, N-[(3-Methoxyphenyl)methyl]-N,6-dimethyl-4-[(1-methylcyclopropyl)amino]furo[2,3-d]pyrimidine-5-carboxamide]: the IC50 was 10 to 100 nM.
For the compound `Cc1oc2ncnc(NC3(C)CC3)c2c1C(=O)NCCc1cccc(Cl)c1` [Example 204, N-[2-(3-Chlorophenyl)ethyl]-6-methyl-4-[(1-methylcyclopropyl)amino]furo[2,3-d]pyrimidine-5-carboxamide], the IC50 is 10 to 100 nM.
For the compound `Cc1oc2ncnc(NC3(C)CC3)c2c1C(=O)NCCc1c[nH]c2ccc(F)cc12` [Example 207, N-[2-(5-Fluoro-1H-indol-3-yl)ethyl]-6-methyl-4-[(1-methylcyclopropyl)amino]furo[2,3-d]pyrimidine-5-carboxamide], the IC50 is 10 to 100 nM.
In the case of `Cc1oc2ncnc(NC3(C)CC3)c2c1C(=O)N1C[C@@H]2[C@H](C1)[C@H]2c1ccccc1` [Example 208, 6-Methyl-N-(1-methylcyclopropyl)-5-[(1R,5S,6S)-6-phenyl-azabicyclo[3.1.0]hexane-3-carbonyl]furo[2,3-d]pyrimidin-4-amine], the IC50 is 10 to 100 nM.
Consider `COc1ccccc1[C@H]1[C@@H]2CN(C(=O)c3c(C)oc4ncnc(NC5(C)CC5)c34)C[C@@H]21` [Example 209, 5-[(1R,5S,6S)-6-(2-Methoxyphenyl)-3-azabicyclo[3.1.0]hexane-3-carbonyl]-6-methyl-N-(1-methylcyclopropyl)furo[2,3-d]pyrimidin-4-amine], for which the “PDE1b (pIC50)” value is more than 8.
Take `C#CCNC(=O)c1c(C)oc2ncnc(NC3(C)CC3)c12` [Example 210, 6-Methyl-4-[(1-methylcyclopropyl)amino]-N-(prop-2-yn-1-yl)furo[2,3-d]pyrimidine-5-carboxamide]: the IC50 is 10 to 100 nM.
The same measure, in the same setting: to `CCCNC(=O)c1c(C)oc2ncnc(NC3(C)CC3)c12` [Example 211, 6-Methyl-4-[(1-methylcyclopropyl)amino]-N-propylfuro[2,3-d]pyrimidine-5-carboxamide] belongs 10 to 100 nM; to `Cc1oc2ncnc(NC3(C)CC3)c2c1C(=O)NC1CCC1` [Example 212, N-Cyclobutyl-6-methyl-4-[(1-methylcyclopropyl)amino]furo[2,3-d]pyrimidine-5-carboxamide], 10 to 100 nM.
On the same count and under the same terms, to `CCCCNC(=O)c1c(C)oc2ncnc(NC3(C)CC3)c12` [Example 213, N-Butyl-6-methyl-4-[(1-methylcyclopropyl)amino]furo[2,3-d]pyrimidine-5-carboxamide] belongs 10 to 100 nM.
On to `Cc1oc2ncnc(NC3(C)CC3)c2c1C(=O)N(C)Cc1ccccn1` [Example 214, N,6-Dimethyl-4-[(1-methylcyclopropyl)amino]-N-(pyridin-2-ylmethyl)furo[2,3-d]pyrimidine-5-carboxamide], for which the IC50 was 100 to 1000 nM.
On the same count and under the same terms, the value for `Cc1oc2ncnc(NC3(C)CC3)c2c1C(=O)N(C)Cc1cccnc1` [Example 215, N,6-Dimethyl-4-[(1-methylcyclopropyl)amino]-N-(pyridin-3-ylmethyl)furo[2,3-d]pyrimidine-5-carboxamide] was 100 to 1000 nM.
As to `Cc1oc2ncnc(NC3(C)CC3)c2c1C(=O)NCc1cccc(F)c1` [Example 217, N-[(3-Fluorophenyl)methyl]-6-methyl-4-[(1-methylcyclopropyl)amino]furo[2,3-d]pyrimidine-5-carboxamide], the “PDE1b (pIC50)” value was more than 8.
On to `Cc1oc2ncnc(NC3(C)CC3)c2c1C(=O)NCc1ccccc1F` [Example 218, N-[(2-Fluorophenyl)methyl]-6-methyl-4-[(1-methylcyclopropyl)amino]furo[2,3-d]pyrimidine-5-carboxamide], for which the IC50 was 10 to 100 nM.
Same read-out and setting: the value for `Cc1oc2ncnc(NC3(C)CC3)c2c1C(=O)NCCCn1ccnc1` [Example 220, N-[3-(1H-Imidazol-1-yl)propyl]-6-methyl-4-[(1-methylcyclopropyl)amino]furo[2,3-d]pyrimidine-5-carboxamide] was 10 to 100 nM; that for `Cc1oc2ncnc(NC3(C)CC3)c2c1C(=O)NCCc1cccs1` [Example 222, 6-Methyl-4-[(1-methylcyclopropyl)amino]-N-[2-(thiophen-2-yl)ethyl]furo[2,3-d]pyrimidine-5-carboxamide] was 10 to 100 nM.
Take `Cc1oc2ncnc(NC3(C)CC3)c2c1C(=O)N(C)Cc1ccsc1` [Example 223, N,6-Dimethyl-4-[(1-methylcyclopropyl)amino]-N-(thiophen-3-ylmethyl)furo[2,3-d]pyrimidine-5-carboxamide]: the IC50 was 10 to 100 nM.
On to `Cc1oc2ncnc(NC3(C)CC3)c2c1C(=O)N(C)Cc1cccs1` [Example 224, N,6-Dimethyl-4-[(1-methylcyclopropyl)amino]-N-(thiophen-2-ylmethyl)furo[2,3-d]pyrimidine-5-carboxamide], for which the IC50 was 10 to 100 nM.

For the origin of these results see US20250145633A1, “SUBSTITUTED FURANOPYRIMIDINE COMPOUNDS AS PDE1 INHIBITORS” (Dart NeuroScience, LLC, priority 2017, published 2025).
